Measurements taken from patent publication US6689609B1, “Enhancing germination of plant somatic embryos by priming” (Cellfor Inc., priority 1999, dated 2004).
Like-named read-outs stand apart in the source and are kept apart here.

What was measured:
[1] = system: interior spruce somatic embryos; assay type: in vivo, Picea glauca (Moench) Voss x P. engelmannii Parry ex Engelm.; conditions: for % with hyperhydricity: in vivo
Description: The second study assessed the effects adding various osmotica to nutripriming solutions on subsequent germination and development performance. Mature somatic embryos of interior spruce (Picea glauca (Moench) Voss x P. engelmannii Parry ex Engelm.) genotype 23-2672 were desiccated with the HRHT treatment, and then divided into 10 groups of 160 somatic embryos per group. One group was not primed and served as the HRHT control treatment for this study. […] The nutripriming solutions and embryos were placed into 250-ml Kimax® baffled flasks. The nutripriming duration was 72 hrs at temperatures ranging between 20-23° C., and a 24-hr photoperiod of 30 μmol m^−2s^−1 photosynthetic photon flux.
At the completion of the nutripriming step, the nutriprimed embryos from each treatment were divided into 8 groups of 20 embryos and sown by hand onto vermiculite media in Sigma polycarbonate boxes. The liquid media in these germination boxes were either 3% w/v sucrose m24GMD or m24GMD without sucrose. The experiment design was a random complete block design for each media type. Each nutripriming treatment had 4 replicates of 20 embryos in each germination media type. The germination boxes were placed in a germination room and grown for two weeks under 50-70 μmol m^−2s^−1 photosynthetic photon flux of 16-hour photoperiod at an air temperature of 23° C. The germinants were then harvested and assessed for germination rates, hyperhydricity rates, shoot and root length. Germination was defined as germinants having a root longer than 2 mm, and elongated hypercotyl. Hyperhydricity was defined by the thickening of hypercotyl and watery appearance of the germinants, whether germinated or not germinated.

[2] = system: interior spruce somatic embryos; experiment: Ascorbic acid in nutripriming solution and germination media: germination and growth of interior spruce genotype 4-2809 somatic embryos; assay type: in vivo, Picea glauca (Moench) Voss x P. engelmannii Parry ex Engelm.
Protocol: Mature somatic embryos of interior spruce (Picea glauca (Moench) Voss x P. engelmannii Parry ex […].) genotype 4-2809 were desiccated with the HRHT treatment, and then nutriprimed in 3% w/v sucrose m24GMD solutions for 3 days as previously described. The nutripriming solutions were formulated with one of the following three ascorbic acid treatments; 0, 10 uM, 100 uM. The nutriprimed somatic embryos were then sown into germination boxes containing 150 ml vermiculite plus 120 ml of 3% w/v sucrose m24GMD liquid medium. […] Nutriprimed embryos from each ascorbic acid nutripriming treatment were then sown into triplicate boxes of each ascorbic acid-amended germination medium. After sowing, the germination boxes were sealed twice with ParafilmTM. Embryos were germinated and grown for two weeks under 50-70 μmol m^-2s^-1 photosynthetic photon flux of 16-hour photoperiod at an air temperature of 22° C. Then, the germinants were harvested, and measured.

[3] = germination media m24GMD (without sucrose), osmoticant levels as E220
[4] = germination media m24GMD plus 3% sucrose, osmoticant in m24GMD priming solution (w/v): 1% betaine, 1.65% fructose, glucose, mannitol, sorbitol, 3% lactose, maltose, sucrose, 10% PEG 4000, 72 hrs
[5] = germination media m24GMD plus 3% sucrose, osmoticant levels as E220
[6] = AA 0 μM in germination media, 10 μM in priming solution
[7] = AA 0 μM in germination media, 100 μM in priming solution
[8] = AA 1 μM in germination media, 0 μM in priming solution
[9] = AA 1 μM in germination media, 10 μM in priming solution
[10] = AA 1 μM in germination media, 100 μM in priming solution
[11] = AA 10 μM in germination media, 0 μM in priming solution
[12] = AA 10 μM in germination media, 10 μM in priming solution
[13] = AA 10 μM in germination media, 100 μM in priming solution
[14] = AA 100 μM in germination media, 0 μM in priming solution
[15] = AA 100 μM in germination media, 10 μM in priming solution
[16] = AA 100 μM in germination media, 100 μM in priming solution
[17] = AA 1000 μM in germination media, 0 μM in priming solution
[18] = AA 1000 μM in germination media, 10 μM in priming solution
[19] = AA 1000 μM in germination media, 100 μM in priming solution

`O=C(CO)[C@@H](O)[C@H](O)[C@H](O)CO` [fructose] showed a Germination % [1, 3] of 87.5 ± 7.8%, a Root length [1, 3] of 2.1 ± 0.1 mm and a Shoot length [1, 3] of 10.0 ± 0.3 mm. For the same compound, the Germination % [1, 4] was 100%, the Root length [1, 5] was 12.2 ± 0.8 mm and the Shoot length [1, 5] was 13.5 ± 0.3 mm. The “% with hyperhydricity” value [1] was 86.3 ± 9.4%.
For “polyethylene glycol (PEG) 4000 [PEG 4000]”, the “% with hyperhydricity” value [1] was 97.5 ± 4.3%.
`OC[C@@H](O)[C@@H](O)[C@H](O)[C@H](O)CO` [mannitol] showed a Germination % [1, 3] of 24.6 ± 12.7%, a Root length [1, 3] of 0.3 ± 0.1 mm and a Shoot length [1, 3] of 10.0 ± 0.3 mm. The Germination % [1, 4] was 100%, the Root length [1, 5] was 12.0 ± 0.5 mm and the Shoot length [1, 5] was 13.6 ± 0.3 mm. For the same compound, the “% with hyperhydricity” value [1] was 93.5 ± 5.0%.
With `O=C1O[C@H]([C@@H](O)CO)C(O)=C1O` [AA, Ascorbic acid] the Germination % [2, 6] was 100.0 ± 0.0%, the Root length [2, 6] was 2.59 ± 0.26 cm and the Rooting % [2, 6] was 86.7 ± 3.3%. It also gave a Shoot length [2, 6] of 1.86 ± 0.10 cm, a Germination % [2, 7] of 100.0 ± 0.0% and a Root length [2, 7] of 3.56 ± 0.37 cm. The Rooting % [2, 7] was 96.7 ± 3.3%, the Shoot length [2, 7] was 2.07 ± 0.11 cm and the Germination % [2, 8] was 96.7 ± 3.3%. The Root length [2, 8] was 1.90 ± 0.23 cm, the Rooting % [2, 8] was 85.8 ± 3.0% and the Shoot length [2, 8] was 1.68 ± 0.10 cm. For the same compound, the Germination % [2, 9] was 100.0 ± 0.0%, the Root length [2, 9] was 2.07 ± 0.22 cm and the Rooting % [2, 9] was 86.7 ± 8.8%. For the same compound, the Shoot length [2, 9] was 1.83 ± 0.11 cm, the Germination % [2, 10] was 100.0 ± 0.0% and the Rooting % [2, 10] was 90.0 ± 0.0%. It also gave a Shoot length [2, 10] of 1.79 ± 0.09 cm, a Germination % [2, 11] of 97.5 ± 2.5% and a Root length [2, 11] of 2.46 ± 0.30 cm. The Rooting % [2, 11] was 87.5 ± 6.3%, the Shoot length [2, 11] was 1.84 ± 0.09 cm and the Germination % [2, 12] was 96.7 ± 3.3%. The Root length [2, 12] was 2.82 ± 0.36 cm, the Rooting % [2, 12] was 86.7 ± 3.3% and the Shoot length [2, 12] was 1.97 ± 0.19 cm. The Germination % [2, 13] was 100.0 ± 0.0%, the Root length [2, 13] was 3.24 ± 0.32 cm and the Rooting % [2, 13] was 96.7 ± 3.3%. It also gave a Shoot length [2, 13] of 2.33 ± 0.11 cm, a Germination % [2, 14] of 93.3 ± 3.3% and a Root length [2, 14] of 2.50 ± 0.33 cm. It also gave a Rooting % [2, 14] of 63.3 ± 8.8%, a Shoot length [2, 14] of 1.81 ± 0.09 cm and a Germination % [2, 15] of 100.0 ± 0.0%. For the same compound, the Root length [2, 15] was 3.18 ± 0.42 cm, the Rooting % [2, 15] was 78.2% and the Shoot length [2, 15] was 2.02 ± 0.11 cm. The Germination % [2, 16] was 100.0 ± 0.0%, the Root length [2, 16] was 3.61 ± 0.39 cm and the Rooting % [2, 16] was 73.0%. It also gave a Shoot length [2, 16] of 2.12 ± 0.11 cm, a Germination % [2, 17] of 100.0 ± 0.0% and a Root length [2, 17] of 2.11 ± 0.25 cm. It also gave a Rooting % [2, 17] of 90.0 ± 0.0%, a Shoot length [2, 17] of 1.79 ± 0.14 cm and a Germination % [2, 18] of 100.0 ± 0.0%. The Root length [2, 18] was 2.55 ± 0.20 cm, the Rooting % [2, 18] was 95.0 ± 5.0% and the Shoot length [2, 18] was 2.00 ± 0.09 cm. The Germination % [2, 19] was 100.0 ± 0.0%, the Root length [2, 19] was 2.19 ± 0.26 cm and the Rooting % [2, 19] was 90.0 ± 5.8%. It also gave a Shoot length [2, 19] of 1.75 ± 0.15 cm.
`OC[C@@H](O)[C@@H](O)[C@H](O)[C@@H](O)CO` [sorbitol] gave a Germination % [1, 3] of 5.0 ± 5.0%, a Root length [1, 3] of 0.4 ± 0.1 mm and a Shoot length [1, 3] of 10.7 ± 0.3 mm. It also gave a Germination % [1, 4] of 100%, a Root length [1, 5] of 15.5 ± 1.0 mm and a Shoot length [1, 5] of 14.5 ± 0.4 mm. For the same compound, the “% with hyperhydricity” value [1] was 92.6 ± 6.0%.
With `OC[C@H]1O[C@@H](O[C@H]2[C@H](O)[C@@H](O)C(O)O[C@@H]2CO)[C@H](O)[C@@H](O)[C@H]1O` (some centres unmarked) [lactose] the Germination % [1, 3] was 27.6 ± 24.3%, the Root length [1, 3] was 0.3 ± 0.1 mm and the Shoot length [1, 3] was 11.5 ± 0.2 mm. The Germination % [1, 4] was 100%, the Root length [1, 5] was 12.4 ± 0.8 mm and the Shoot length [1, 5] was 15.5 ± 0.3 mm. For the same compound, the “% with hyperhydricity” value [1] was 100%.
With `C[N+](C)(C)CC(=O)O` [betaine] the Germination % [1, 3] was 45.0 ± 26.3%, the Root length [1, 3] was 0.4 ± 0.2 mm and the Shoot length [1, 3] was 11.2 ± 0.3 mm. The Germination % [1, 4] was 100%, the Root length [1, 5] was 12.2 ± 0.8 mm and the Shoot length [1, 5] was 14.2 ± 0.3 mm. For the same compound, the “% with hyperhydricity” value [1] was 76.3 ± 19.1%.
Work on `OC[C@H]1O[C@H](O[C@H]2[C@H](O)[C@@H](O)[C@H](O)O[C@@H]2CO)[C@H](O)[C@@H](O)[C@@H]1O` [maltose] yielded a Germination % [1, 3] of 0%, a Root length [1, 3] of 0.8 ± 0.1 mm and a Shoot length [1, 3] of 11.2 ± 0.3 mm. It also gave a Germination % [1, 4] of 98.8%, a Root length [1, 5] of 11.5 ± 0.8 mm and a Shoot length [1, 5] of 14.2 ± 0.3 mm. For the same compound, the “% with hyperhydricity” value [1] was 100%.
